Laboratory results: the kinase profiling compilation of Christmann-Franck et al. (2016)

Legend:
Experiment in all cases: KINOMEscan competition binding
Conditions in all cases: compound 10.0 µM
BLK (human) = BLK (human) (UniProt P51451)
CDK14 (human) = CDK14 (human) (UniProt O94921)
CHUK (human) = CHUK (human) (UniProt O15111)
CSF1R (human) = CSF1R (human) (UniProt P07333)
CSNK1E (human) = CSNK1E (human) (UniProt P49674)
CSNK1G2 (human) = CSNK1G2 (human) (UniProt P78368)
CSNK1G3 (human) = CSNK1G3 (human) (UniProt Q9Y6M4)
DCLK2 (human) = DCLK2 (human) (UniProt Q8N568)
EPHA8 (human) = EPHA8 (human) (UniProt P29322)
ERBB4 (human) = ERBB4 (human) (UniProt Q15303)
FER (human) = FER (human) (UniProt P16591)
FGFR1 (human) = FGFR1 (human) (UniProt P11362)
Chain of FGFR1 (human) (P11362 whole entry, looked up): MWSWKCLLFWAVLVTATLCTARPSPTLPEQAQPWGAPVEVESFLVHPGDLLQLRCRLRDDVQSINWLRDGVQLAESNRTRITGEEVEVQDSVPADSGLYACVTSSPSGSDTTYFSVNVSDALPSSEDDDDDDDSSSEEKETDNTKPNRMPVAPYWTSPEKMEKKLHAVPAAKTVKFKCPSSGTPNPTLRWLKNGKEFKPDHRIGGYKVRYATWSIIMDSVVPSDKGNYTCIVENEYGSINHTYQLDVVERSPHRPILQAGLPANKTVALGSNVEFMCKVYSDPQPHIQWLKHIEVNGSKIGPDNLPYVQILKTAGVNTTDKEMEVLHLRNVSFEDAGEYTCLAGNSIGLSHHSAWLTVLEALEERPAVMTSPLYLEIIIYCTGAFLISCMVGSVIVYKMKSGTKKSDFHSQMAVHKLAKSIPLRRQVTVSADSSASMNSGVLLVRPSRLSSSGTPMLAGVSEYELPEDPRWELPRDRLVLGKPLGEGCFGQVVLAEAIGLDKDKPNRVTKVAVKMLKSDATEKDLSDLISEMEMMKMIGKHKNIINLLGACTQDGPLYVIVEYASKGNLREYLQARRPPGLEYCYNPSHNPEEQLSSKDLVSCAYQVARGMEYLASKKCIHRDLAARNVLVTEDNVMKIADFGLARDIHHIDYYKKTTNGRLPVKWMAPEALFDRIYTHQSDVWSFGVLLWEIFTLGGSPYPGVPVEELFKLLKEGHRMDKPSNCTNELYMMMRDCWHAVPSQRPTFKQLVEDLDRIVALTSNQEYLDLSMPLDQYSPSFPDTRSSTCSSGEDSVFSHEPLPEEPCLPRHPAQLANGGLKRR

GAK (human) = GAK (human) (UniProt O14976)
Chain of GAK (human) (O14976 whole entry, looked up): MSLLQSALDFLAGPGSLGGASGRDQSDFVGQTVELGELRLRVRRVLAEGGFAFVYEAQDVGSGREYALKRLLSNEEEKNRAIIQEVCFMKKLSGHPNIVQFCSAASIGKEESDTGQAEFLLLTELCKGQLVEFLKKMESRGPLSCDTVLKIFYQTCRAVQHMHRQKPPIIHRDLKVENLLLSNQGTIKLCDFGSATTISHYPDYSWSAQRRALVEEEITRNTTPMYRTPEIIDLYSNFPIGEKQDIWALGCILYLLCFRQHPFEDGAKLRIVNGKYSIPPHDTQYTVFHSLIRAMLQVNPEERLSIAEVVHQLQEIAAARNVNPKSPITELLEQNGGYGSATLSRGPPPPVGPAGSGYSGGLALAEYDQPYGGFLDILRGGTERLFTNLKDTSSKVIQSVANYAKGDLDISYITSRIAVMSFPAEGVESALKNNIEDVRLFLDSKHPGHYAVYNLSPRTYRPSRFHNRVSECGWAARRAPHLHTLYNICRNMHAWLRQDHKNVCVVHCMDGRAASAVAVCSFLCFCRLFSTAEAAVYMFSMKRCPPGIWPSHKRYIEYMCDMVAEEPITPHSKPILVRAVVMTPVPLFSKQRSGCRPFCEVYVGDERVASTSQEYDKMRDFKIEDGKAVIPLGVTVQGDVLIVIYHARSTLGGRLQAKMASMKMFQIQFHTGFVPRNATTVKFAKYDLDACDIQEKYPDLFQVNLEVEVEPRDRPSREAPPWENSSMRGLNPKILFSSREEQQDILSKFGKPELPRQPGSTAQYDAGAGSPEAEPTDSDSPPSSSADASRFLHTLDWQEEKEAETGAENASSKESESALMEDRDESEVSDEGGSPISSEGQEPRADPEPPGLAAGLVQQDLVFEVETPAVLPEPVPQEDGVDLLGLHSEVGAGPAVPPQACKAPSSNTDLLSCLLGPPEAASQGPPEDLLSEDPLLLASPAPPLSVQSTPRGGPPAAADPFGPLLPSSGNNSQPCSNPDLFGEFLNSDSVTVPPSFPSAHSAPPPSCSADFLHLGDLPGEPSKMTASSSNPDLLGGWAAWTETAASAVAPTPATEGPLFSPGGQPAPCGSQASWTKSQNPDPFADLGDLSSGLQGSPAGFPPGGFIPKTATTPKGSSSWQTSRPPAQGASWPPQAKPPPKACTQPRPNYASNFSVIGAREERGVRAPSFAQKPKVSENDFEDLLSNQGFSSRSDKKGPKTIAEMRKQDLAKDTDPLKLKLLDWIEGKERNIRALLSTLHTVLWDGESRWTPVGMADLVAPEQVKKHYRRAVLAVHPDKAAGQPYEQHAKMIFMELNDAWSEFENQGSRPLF

HIPK2 (human) = HIPK2 (human) (UniProt Q9H2X6)
IKBKB (human) = IKBKB (human) (UniProt O14920)
[1] = biological target: JAK1 JH1 catalytic (human) (UniProt P23458)
[2] = biological target: JAK3 JH1 catalytic (human) (UniProt P52333)
MAP2K2 (human) = MAP2K2 (human) (UniProt P36507)
MAP2K3 (human) = MAP2K3 (human) (UniProt P46734)
MAP3K2 (human) = MAP3K2 (human) (UniProt Q9Y2U5)
MAPK1 (human) = MAPK1 (human) (UniProt P28482)
MAPK9 (human) = MAPK9 (human) (UniProt P45984)
Chain of MAPK9 (human) (P45984 whole entry, looked up): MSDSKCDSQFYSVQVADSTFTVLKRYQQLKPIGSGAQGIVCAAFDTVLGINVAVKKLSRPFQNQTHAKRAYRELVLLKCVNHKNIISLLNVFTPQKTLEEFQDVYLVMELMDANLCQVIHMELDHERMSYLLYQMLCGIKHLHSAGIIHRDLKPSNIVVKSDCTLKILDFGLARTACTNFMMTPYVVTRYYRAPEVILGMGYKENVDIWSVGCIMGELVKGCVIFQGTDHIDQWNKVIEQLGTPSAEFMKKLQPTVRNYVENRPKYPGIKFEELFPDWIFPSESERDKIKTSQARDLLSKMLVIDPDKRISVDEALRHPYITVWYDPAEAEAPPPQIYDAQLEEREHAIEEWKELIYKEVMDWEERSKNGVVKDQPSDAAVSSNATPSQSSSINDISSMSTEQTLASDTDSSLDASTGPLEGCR

MAPKAPK5 (human) = MAPKAPK5 (human) (UniProt Q8IW41)
MELK (human) = MELK (human) (UniProt Q14680)
MLTK (human) = MLTK (human) (UniProt Q9NYL2)
Chain of MLTK (human) (Q9NYL2 whole entry, looked up): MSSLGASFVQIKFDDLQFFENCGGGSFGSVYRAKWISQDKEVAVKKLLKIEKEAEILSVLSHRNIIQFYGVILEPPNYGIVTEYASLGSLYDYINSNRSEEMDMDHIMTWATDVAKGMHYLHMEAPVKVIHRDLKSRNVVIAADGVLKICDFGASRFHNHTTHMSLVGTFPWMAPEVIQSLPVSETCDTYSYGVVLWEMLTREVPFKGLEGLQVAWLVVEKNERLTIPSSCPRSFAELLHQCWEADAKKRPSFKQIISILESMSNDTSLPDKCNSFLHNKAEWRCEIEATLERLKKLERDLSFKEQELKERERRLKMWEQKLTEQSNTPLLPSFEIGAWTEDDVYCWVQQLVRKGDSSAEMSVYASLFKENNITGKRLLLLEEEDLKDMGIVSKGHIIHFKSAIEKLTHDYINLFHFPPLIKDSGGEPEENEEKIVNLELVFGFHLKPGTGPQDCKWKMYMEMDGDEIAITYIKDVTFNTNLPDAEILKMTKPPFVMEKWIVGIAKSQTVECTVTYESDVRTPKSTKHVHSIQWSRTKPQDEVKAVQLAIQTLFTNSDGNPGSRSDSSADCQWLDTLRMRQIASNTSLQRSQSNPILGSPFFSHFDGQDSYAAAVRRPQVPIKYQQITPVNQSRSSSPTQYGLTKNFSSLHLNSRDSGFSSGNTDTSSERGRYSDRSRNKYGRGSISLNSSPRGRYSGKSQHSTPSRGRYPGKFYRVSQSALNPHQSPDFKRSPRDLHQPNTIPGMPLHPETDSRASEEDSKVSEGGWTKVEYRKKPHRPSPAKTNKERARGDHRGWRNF

MST1R (human) = MST1R (human) (UniProt Q04912)
NIM1 (human) = NIM1 (human) (UniProt Q8IY84)
Chain of NIM1 (human) (Q8IY84 whole entry, looked up): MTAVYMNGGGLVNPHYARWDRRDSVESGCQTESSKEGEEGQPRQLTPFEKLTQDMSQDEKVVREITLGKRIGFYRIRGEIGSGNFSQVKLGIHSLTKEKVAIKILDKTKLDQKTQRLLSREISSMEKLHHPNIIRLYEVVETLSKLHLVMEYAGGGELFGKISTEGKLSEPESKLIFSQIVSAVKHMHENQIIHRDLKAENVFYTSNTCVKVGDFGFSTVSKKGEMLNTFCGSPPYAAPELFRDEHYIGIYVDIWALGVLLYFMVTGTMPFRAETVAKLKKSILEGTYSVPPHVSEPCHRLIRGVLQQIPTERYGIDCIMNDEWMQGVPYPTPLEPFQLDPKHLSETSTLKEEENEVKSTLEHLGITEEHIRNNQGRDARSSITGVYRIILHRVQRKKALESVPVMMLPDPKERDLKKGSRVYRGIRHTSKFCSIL

NLK (human) = NLK (human) (UniProt Q9UBE8)
PAK6 (human) = PAK6 (human) (UniProt Q9NQU5)
PI4KB (human) = PI4KB (human) (UniProt Q9UBF8)
PIM3 (human) = PIM3 (human) (UniProt Q86V86)
PIP4K2B (human) = PIP4K2B (human) (UniProt P78356)
PKN1 (human) = PKN1 (human) (UniProt Q16512)
PRKD2 (human) = PRKD2 (human) (UniProt Q9BZL6)
PTK6 (human) = PTK6 (human) (UniProt Q13882)
RIOK1 (human) = RIOK1 (human) (UniProt Q9BRS2)
RIPK2 (human) = RIPK2 (human) (UniProt O43353)
STK11 (human) = STK11 (human) (UniProt Q15831)
STK38L (human) = STK38L (human) (UniProt Q9Y2H1)
TGFBR2 (human) = TGFBR2 (human) (UniProt P37173)

Chain of CDK14 (human) (O94921 whole entry, looked up): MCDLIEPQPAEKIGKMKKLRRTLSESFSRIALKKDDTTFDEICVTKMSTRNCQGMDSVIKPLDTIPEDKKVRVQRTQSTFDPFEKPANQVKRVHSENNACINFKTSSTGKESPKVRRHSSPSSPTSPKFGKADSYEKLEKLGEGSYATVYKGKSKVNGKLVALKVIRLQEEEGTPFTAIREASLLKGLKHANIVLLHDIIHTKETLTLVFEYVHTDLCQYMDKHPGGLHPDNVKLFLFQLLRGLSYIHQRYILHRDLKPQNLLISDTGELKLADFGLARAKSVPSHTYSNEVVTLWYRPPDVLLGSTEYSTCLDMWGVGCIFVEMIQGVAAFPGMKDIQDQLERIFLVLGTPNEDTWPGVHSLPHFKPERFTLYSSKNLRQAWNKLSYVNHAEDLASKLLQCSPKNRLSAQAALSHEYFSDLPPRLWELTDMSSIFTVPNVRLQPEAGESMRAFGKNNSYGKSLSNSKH
Chain of CSNK1G2 (human) (P78368 whole entry, looked up): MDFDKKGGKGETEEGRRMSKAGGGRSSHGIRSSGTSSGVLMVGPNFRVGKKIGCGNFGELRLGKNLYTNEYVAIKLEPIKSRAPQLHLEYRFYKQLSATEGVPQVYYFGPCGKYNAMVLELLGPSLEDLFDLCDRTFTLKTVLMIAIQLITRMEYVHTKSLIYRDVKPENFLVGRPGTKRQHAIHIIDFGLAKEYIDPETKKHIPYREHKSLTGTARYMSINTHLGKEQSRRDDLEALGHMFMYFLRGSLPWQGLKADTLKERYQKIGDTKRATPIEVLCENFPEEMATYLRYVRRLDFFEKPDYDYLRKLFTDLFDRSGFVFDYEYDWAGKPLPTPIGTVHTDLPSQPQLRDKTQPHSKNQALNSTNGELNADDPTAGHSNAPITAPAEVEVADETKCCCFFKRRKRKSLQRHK

Row | SMILES | kinase still bound, per cent of control (BLK (human)) [%] | kinase still bound, per cent of control (CDK14 (human)) [%] | kinase still bound, per cent of control (CHUK (human)) [%] | kinase still bound, per cent of control (CSF1R (human)) [%] | kinase still bound, per cent of control (CSNK1E (human)) [%] | kinase still bound, per cent of control (CSNK1G2 (human)) [%] | kinase still bound, per cent of control (CSNK1G3 (human)) [%] | kinase still bound, per cent of control (DCLK2 (human)) [%] | kinase still bound, per cent of control (EPHA8 (human)) [%] | kinase still bound, per cent of control (ERBB4 (human)) [%] | kinase still bound, per cent of control (FER (human)) [%] | kinase still bound, per cent of control (FGFR1 (human)) [%] | kinase still bound, per cent of control (GAK (human)) [%] | kinase still bound, per cent of control (HIPK2 (human)) [%] | kinase still bound, per cent of control (IKBKB (human)) [%] | kinase still bound, per cent of control [1] [%] | kinase still bound, per cent of control [2] [%] | kinase still bound, per cent of control (MAP2K2 (human)) [%] | kinase still bound, per cent of control (MAP2K3 (human)) [%] | kinase still bound, per cent of control (MAP3K2 (human)) [%] | further results
1 | N#Cc1cc(-c2ccnc(Nc3ccc(-n4cnc(-c5cccnc5)n4)cc3)n2)cc(N2CCOCC2)c1 | 86 | 35 | 55 | 14 | 95 | 72 | 100 | 100 | 93 | 91 | 99 | 93 | 22 | 6.2 | 38 | 59 | 2.2 | 62 | 18 | 31 | kinase still bound, per cent of control (MAPK1 (human)): 100%; kinase still bound, per cent of control (MAPK9 (human)): 0.1%; kinase still bound, per cent of control (MAPKAPK5 (human)): 100%; kinase still bound, per cent of control (MELK (human)): 100%; kinase still bound, per cent of control (MLTK (human)): 17%; kinase still bound, per cent of control (MST1R (human)): 100%; kinase still bound, per cent of control (NIM1 (human)): 58%; kinase still bound, per cent of control (NLK (human)): 76%; kinase still bound, per cent of control (PAK6 (human)): 58%; kinase still bound, per cent of control (PI4KB (human)): 100%; kinase still bound, per cent of control (PIM3 (human)): 78%; kinase still bound, per cent of control (PIP4K2B (human)): 6.9%; kinase still bound, per cent of control (PKN1 (human)): 48%; kinase still bound, per cent of control (PRKD2 (human)): 93%; kinase still bound, per cent of control (PTK6 (human)): 100%; kinase still bound, per cent of control (RIOK1 (human)): 3.8%; kinase still bound, per cent of control (RIPK2 (human)): 53%; kinase still bound, per cent of control (STK11 (human)): 11%; kinase still bound, per cent of control (STK38L (human)): 100%; kinase still bound, per cent of control (TGFBR2 (human)): 100%
2 | CCN1CCN(Cc2ccc(NC(=O)c3ccc(C)c(/C=C/c4cnc5[nH]ccc5c4OC)c3)cc2C(F)(F)F)CC1 | 0.15 | 72 | 0 | 0 | 45 | 39 | 48 | 100 | 0.15 | 0.1 | 27 | 0.1 | 2.2 | 41 | 0.15 | 39 | 1.1 | 58 | 68 | 0.65 | kinase still bound, per cent of control (MAPK1 (human)): 100%; kinase still bound, per cent of control (MAPK9 (human)): 0.1%; kinase still bound, per cent of control (MAPKAPK5 (human)): 90%; kinase still bound, per cent of control (MELK (human)): 20%; kinase still bound, per cent of control (MLTK (human)): 0.8%; kinase still bound, per cent of control (MST1R (human)): 100%; kinase still bound, per cent of control (NIM1 (human)): 100%; kinase still bound, per cent of control (NLK (human)): 17%; kinase still bound, per cent of control (PAK6 (human)): 54%; kinase still bound, per cent of control (PI4KB (human)): 91%; kinase still bound, per cent of control (PIM3 (human)): 100%; kinase still bound, per cent of control (PIP4K2B (human)): 0.4%; kinase still bound, per cent of control (PKN1 (human)): 16%; kinase still bound, per cent of control (PRKD2 (human)): 50%; kinase still bound, per cent of control (PTK6 (human)): 9.6%; kinase still bound, per cent of control (RIOK1 (human)): 0.75%; kinase still bound, per cent of control (RIPK2 (human)): 1.8%; kinase still bound, per cent of control (STK11 (human)): 7.9%; kinase still bound, per cent of control (STK38L (human)): 35%; kinase still bound, per cent of control (TGFBR2 (human)): 5.7%
